Patent publication US20240398973A1, “ENGINEERED ANTIBODY COMPOUNDS AND CONJUGATES THEREOF” (Eli Lilly and Company, priority 2017, published 2024)
pEC50: −log10 of the molar value. Read-outs that look alike come from different tables or passages of the source. Where no end group is shown, it is not given here. The star is where a group is joined. hydrolyzed maleimide‑PEG linker = hydrolyzed maleimide-polyethylene glycol (PEG) linker, bound to the Lys side chain through an epsilon amide bond; For = O=C*

How the values were obtained:
[1] = target: formyl peptide receptor 1 (FPR1) on primary human polymorphonuclear neutrophils (human) (UniProt P21462); test: cell-based or functional assay
[2] = target: formyl peptide receptor 1 (FPR1) on primary human polymorphonuclear neutrophils (human) (UniProt P21462); test: cell-based or functional assay; remark: listed apart in the source
[3] = tested on: Mouse neutrophils purified from marrow; test: Mouse PMN ROS production; assay type: cell-based; settings: relative to 10000 nM fMLF, AUC 5 minutes (Table 8c)
Method: Mouse neutrophils purified from marrow were exposed to formyl peptides or antibody conjugates and ROS production was measured using luminol amplified chemiluminescence essentially as described above.

[4] = tested on: primary human polymorphonuclear neutrophil (PMN); test: PMN chemotaxis (transwell, modified Boyden chamber); assay type: cell-based; settings: relative to 100 nM fMLF, raw migration values (Table 4b)
Method: Chemotaxis is measured by observing primary human polymorphonuclear neutrophil (PMN) migration across transwell membranes (Corning #3415) towards antibody conjugates in a modified Boyden chamber assay. Approximately 2-4×10^5 cells from neutrophil-enriched preparations are seeded in upper transwell chambers on membranes with 3.0 um pores. The lower transwell chambers contain solutions of buffer alone and fMLF (N-formyl-Met-Leu-Phe peptide as positive control) and experimental antibody bioconjugates. […] Cell numbers are determined using standard curves. All data are transformed to percent relative to the maximal fMLF response for each individual experiment.

[5] = tested on: human primary PMNs; test: PMN reactive oxygen species (ROS) production, luminol-amplified chemiluminescence; assay type: cell-based; settings: for PMN ROS production: relative to 3000 nM fMLF, AUC 5 minutes (Table 8b)
Method: Production of ROS by human primary PMNs is measured using luminol-amplified chemiluminescence. Following isolation, PMNs are suspended at 1×10^6 cells/ml in HBSS containing calcium and magnesium (Gibco #14025-092) supplemented with 0.25% human serum albumin (Gemini Bio producst #800-124) and 50 uM Luminol (SigmaAldrich #123072-2.5G). 100 μl of cell suspension (1×10^5 total cells) is then distributed into each well of a 96-well plate suitable for fluorescence measurement (Greiner #655098) and temperature equilibrated to 37° C. for 5 minutes. Following equilibration, 10× solution of antibody conjugate is applied to the wells, achieving a 1× final concentration.
Immediately after the addition of antibody conjugate, chemiluminescence signal is recorded in a luminometer maintained at 37° C. with 0.01 seconds dwell time per well, 20 seconds total time between sequential plate readings and 45 minutes total run time (PerkinElmer EnVision Multilabel Plate Reader).

TMab-G1-fMLFK-HC-124C-378C (antibody)
EC50 of PMN ROS production [1]: 164 nM

fMLF (N-formyl-Met-Leu-Phe peptide)
EC50 of PMN ROS production [2]: 154 nM
EC50 of PMN ROS production [1]: 334 nM

FRM-021: SEQ ID NO: 36; formyl-Met-Ile-Phe-Leu-Lys, lysine side chain epsilon amide to a hydrolyzed maleimide-PEG linker (For-MIFLK(hydrolyzed maleimide‑PEG linker))
Mouse PMN ROS Production ([3]; 10 nM): 14.5 percentage
Mouse PMN ROS Production ([3]; 30 nM): 17.3 percentage
Mouse PMN ROS Production ([3]; 100 nM): 112.6 percentage
Mouse PMN ROS Production ([3]; 300 nM): 150.3 percentage
Mouse PMN ROS Production ([3]; 1000 nM): 180.2 percentage
Mouse PMN ROS Production ([3]; 3000 nM): 194.4 percentage
Mouse PMN ROS Production ([3]; 10000 nM): 186.9 percentage
PMN Chemotaxis Towards Formyl Peptides ([4]; 1 nM): 151.7%
PMN Chemotaxis Towards Formyl Peptides ([4]; 3 nM): 142.2%
PMN Chemotaxis Towards Formyl Peptides ([4]; 10 nM): 137.4%
PMN Chemotaxis Towards Formyl Peptides ([4]; 30 nM): 52.9%
PMN Chemotaxis Towards Formyl Peptides ([4]; 100 nM): 37.0%
PMN Chemotaxis Towards Formyl Peptides ([4]; 300 nM): 35.6%
PMN Chemotaxis Towards Formyl Peptides ([4]; 1000 nM): 22.8%
PMN ROS production ([5]; 10 nM): 8.4 percentage
PMN ROS production ([5]; 30 nM): 34.4 percentage
PMN ROS production ([5]; 100 nM): 69.2 percentage
PMN ROS production ([5]; 300 nM): 84.4 percentage
PMN ROS production ([5]; 1000 nM): 91.2 percentage
PMN ROS production ([5]; 3000 nM): 102.9 percentage
PMN ROS production ([5]; 10000 nM): 91.7 percentage
pEC50 ([5]; Best-Fit values in Graphpad PRISM (Table 8b)): 7.29
